Assay results taken from patent US10722520B2, “Heterocyclic compounds and their use in preventing or treating bacterial infections” (MUTABILIS, priority 2016, dated 2020).

How the values were obtained:
E. coli UFR32 = assay: MIC of compound alone, broth microdilution; format: cell-based; details: Escherichia coli; strain UFR32: E. coli; TEM-1, VEB-1, OXA-10; read-out: MIC compounds of the invention alone
Method in brief: (§1)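 Exponential-phase inoculum, 5×10^5 cfu/mL final, in cation-supplemented MHB; 35° C in air for 16-20 h. MIC: lowest concentration giving no visible growth.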

E. cloacae UFR85 = assay: MIC of compound alone, broth microdilution; format: cell-based; details: Enterobacter cloacae; strain UFR85: E. cloacae; TEM-1, CTX-M-15, AmpC; read-out: MIC compounds of the invention alone
Method in brief: as §1

E. coli UFR41 = assay: MIC of compound alone, broth microdilution; format: cell-based; details: Escherichia coli; strain UFR41: E. coli; TEM-1, CTX-M-15, CMY-2, OXA-1, NDM-4; read-out: MIC compounds of the invention alone
Method in brief: as §1

E. cloacae UFR70 = assay: MIC of compound alone, broth microdilution; format: cell-based; details: Enterobacter cloacae; strain UFR70: E. cloacae; TEM-1, CTX-M-15, CMY-2, OXA-1, Porin loss; read-out: MIC compounds of the invention alone
Method in brief: as §1

E. coli UFR61O = assay: MIC of compound alone, broth microdilution; format: cell-based; details: Escherichia coli; strain UFR61O: E. coli; TEM-1, KPC-2; read-out: MIC compounds of the invention alone
Method in brief: as §1

E. coli UFR74 = assay: MIC of compound alone, broth microdilution; format: cell-based; details: Escherichia coli; strain UFR74: E. coli; SHV-1, DHA-1; read-out: MIC compounds of the invention alone
Method in brief: as §1

E. cloacae 260508 = assay: MIC of compound alone, broth microdilution; format: cell-based; details: Enterobacter cloacae; strain 260508: E. cloacae; TEM-1, CTX-M-15; read-out: MIC compounds of the invention alone
Method in brief: as §1

K. pneumoniae 200047 = assay: MIC of compound alone, broth microdilution; format: cell-based; details: Klebsiella pneumoniae; strain 200047: K. pneumoniae; TEM-1, SHV-32, CTX-M-15, OXA-1; read-out: MIC compounds of the invention alone
Method in brief: as §1

K. pneumoniae UFR77 = assay: MIC of compound alone, broth microdilution; format: cell-based; details: Klebsiella pneumoniae; strain UFR77: K. pneumoniae; CMY-2; read-out: MIC compounds of the invention alone
Method in brief: as §1

P. aeruginosa CIP107051 = assay: MIC of compound alone, broth microdilution; format: cell-based; details: Pseudomonas aeruginosa; strain CIP107051: P. aeruginosa; TEM-24; read-out: MIC compounds of the invention alone
Method in brief: as §1

E. coli 131119 = assay: MIC of compound alone, broth microdilution; format: cell-based; details: Escherichia coli; strain 131119: E. coli; TEM-1, OXA-48; read-out: MIC compounds of the invention alone
Method in brief: as §1

K. pneumoniae 160143 = assay: MIC of compound alone, broth microdilution; format: cell-based; details: Klebsiella pneumoniae; strain 160143: K. pneumoniae; TEM-1, SHV-1, CTX-M-15, KPC-2, OXA-1; read-out: MIC compounds of the invention alone
Method in brief: as §1

K. oxytoca UFR21 = assay: MIC of compound alone, broth microdilution; format: cell-based; details: Klebsiella oxytoca; strain UFR21: K. oxytoca; TEM-1, CTX-M-15, OXA-48; read-out: MIC compounds of the invention alone
Method in brief: as §1

E. coli 190317 = assay: MIC of compound alone, broth microdilution; format: cell-based; details: Escherichia coli; strain 190317: E. coli; TEM-1, SHV-12, CTX-M-15, OXA-1; read-out: MIC compounds of the invention alone
Method in brief: as §1

K. pneumoniae UFR68 = assay: MIC of compound alone, broth microdilution; format: cell-based; details: Klebsiella pneumoniae; strain UFR68: K. pneumoniae; TEM-1, SHV-11, CTX-M-15, KPC-3; read-out: MIC compounds of the invention alone
Method in brief: as §1

E. coli UFR18 = assay: MIC of compound alone, broth microdilution; format: cell-based; details: Escherichia coli; strain UFR18: E. coli; CTX-M-15, OXA-204; read-out: MIC compounds of the invention alone
Method in brief: as §1

E. cloacae UFR51 = assay: MIC of compound alone, broth microdilution; format: cell-based; details: Enterobacter cloacae; strain UFR51: E. cloacae; SHV-12, IMP-8; read-out: MIC compounds of the invention alone
Method in brief: as §1

E. coli UFR39 = assay: MIC of compound alone, broth microdilution; format: cell-based; details: Escherichia coli, UFR39, read-out: MIC compounds of the invention alone
Method in brief: as §1

CTX-M-15 = CTX-M-15 (Escherichia coli, UniProt Q9EXV5)
E. coli RGN238 = assay: microbe, parasite or virus in culture; format: cell-based; details: Escherichia coli, RGN238, read-out: MIC compounds of the invention alone
Protocol: Log phase bacterial suspensions were adjusted to a final density of 5×10^5 cfu/mL in cation-adjusted Mueller-Hinton broth (Becton-Dickinson) and added to each well (98 μL). Microplates were incubated for 16-20 h at 35° C. in ambient air. The MIC of the compounds was defined as the lowest concentration of said compounds that prevented bacterial growth as read by visual inspection.

TEM-1 = TEM-1 (Escherichia coli, UniProt P62593)
KPC-2 = KPC-2 (Klebsiella pneumoniae, UniProt Q9F663)
SHV-1 = SHV-1 (Klebsiella pneumoniae, UniProt P0AD64)
OXA-1 = OXA-1 (Escherichia coli, UniProt P13661)
OXA-15 = OXA-15 (Pseudomonas aeruginosa, UniProt Q51574); assay: biochemical

O=C1N2CC(n3nccn3)=CC(C2)N1OS(=O)(=O)O (centres unmarked) [Example 3, sodium [7-oxo-3-(triazol-2-yl)-1,6-diazabicyclo[3.2.1]oct-3-en-6-yl]sulfate] showed an MIC (E. coli UFR32) of 2 µg/mL, an MIC (E. cloacae UFR85) of 4 µg/mL and an MIC (E. coli UFR41) of 16 µg/mL. The MIC (E. cloacae UFR70) was 4 µg/mL, the MIC (E. coli UFR61O) was 8 µg/mL and the MIC (E. coli UFR74) was 8 µg/mL. It also gave an MIC (E. cloacae 260508) of 4 µg/mL, an MIC (K. pneumoniae 200047) of 4 µg/mL and an MIC (K. pneumoniae UFR77) of 4 µg/mL. It also gave an MIC (P. aeruginosa CIP107051) of over 32 µg/mL, an MIC (E. coli 131119) of 1 µg/mL and an MIC (K. pneumoniae 160143) of 4 µg/mL. It also gave an MIC (K. oxytoca UFR21) of 8 µg/mL, an MIC (E. coli 190317) of 2 µg/mL and an MIC (K. pneumoniae UFR68) of 8 µg/mL. For the same compound, the MIC (E. coli UFR18) was 2 µg/mL, the MIC (E. cloacae UFR51) was 2 µg/mL and the MIC (E. coli UFR39) was 8 µg/mL. It also gave an IC50 (CTX-M-15) of 2.1 nM, an MIC (E. coli RGN238) of 2 µg/mL and an IC50 (TEM-1) of 0.73 nM. For the same compound, the IC50 (KPC-2) was 12 nM, the IC50 (SHV-1) was 9.7 nM and the IC50 (OXA-1) was 200 nM. It also gave an IC50 (OXA-15) of 190 nM.

In the case of O=C1N2CC(n3ccnn3)=C[C@H](C2)N1OS(=O)(=O)O [Example 6, sodium [(5R)-7-oxo-3-(triazol-1-yl)-1,6-diazabicyclo[3.2.1]oct-3-en-6-yl]sulfate], the MIC (E. coli UFR32) is reported as 0.5 µg/mL, the MIC (E. cloacae UFR85) is reported as 1 µg/mL and the MIC (E. coli UFR41) is reported as 2 µg/mL. For the same compound, the MIC (E. cloacae UFR70) was 0.5 µg/mL, the MIC (E. coli UFR61O) was 2 µg/mL and the MIC (E. coli UFR74) was 1 µg/mL. For the same compound, the MIC (E. cloacae 260508) was 1 µg/mL, the MIC (K. pneumoniae 200047) was 1 µg/mL and the MIC (K. pneumoniae UFR77) was 1 µg/mL. For the same compound, the MIC (P. aeruginosa CIP107051) was 32 µg/mL, the MIC (E. coli 131119) was 0.5 µg/mL and the MIC (K. pneumoniae 160143) was 1 µg/mL. The MIC (K. oxytoca UFR21) was 1 µg/mL, the MIC (E. coli 190317) was 0.5 µg/mL and the MIC (K. pneumoniae UFR68) was 1 µg/mL. It also gave an MIC (E. coli UFR18) of 0.5 µg/mL, an MIC (E. cloacae UFR51) of 1 µg/mL and an MIC (E. coli UFR39) of 1 µg/mL. The IC50 (CTX-M-15) was 0.58 nM, the MIC (E. coli RGN238) was 1 µg/mL and the IC50 (TEM-1) was 0.36 nM. The IC50 (KPC-2) was 2.1 nM, the IC50 (SHV-1) was 1.9 nM and the IC50 (OXA-1) was 31 nM. For the same compound, the IC50 (OXA-15) was 21 nM.
